This is an account of results in patent US20230167088A1, “1-PYRAZINYLPYRAZOLYL-3-OXYALKYL ACIDS AND THEIR DERIVATIVES, AND THEIR USE FOR CONTROL OF UNDESIRED PLANT GROWTH” (BAYER AKTIENGESELLSCHAFT, priority 2020, published 2023).

One assay deals with ABUTH. Kind of assay: Herbicidal post-emergence action 1a (greenhouse pots, visual rating). The class given is in vivo, Abutilon theophrasti. Conditions: visual rating about 3 weeks after treatment. The essentials: (§1)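 Weeds and crops sown in sandy loam in greenhouse pots were sprayed post-emergence at the one-leaf stage (2–3 weeks after sowing) with WP or EC formulations plus 0.5% additive at 600 l/ha water, 320 and/or 80 g/ha. About 3 weeks later damage was rated visually against untreated controls (0% = no effect, 100% = dead).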

Assay [1] deals with ECHCG. The description is as above. The format is in vivo, Echinochloa crus-galli. Conditions: rated visually about 3 weeks after treatment, 100% = plants have died, 0% = like control plants. The essentials:
as §1

A further assay concerns MATIN. As to the kind of experiment: Herbicidal post-emergence action 1b (twin sowing, 1280 g/ha). The format is in vivo, Matricaria inodora. Conditions: dosage 1280 g/ha, visual rating about 3 weeks after treatment. The essentials:
(§2)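 Post-emergence foliar spray on one-leaf weeds grown two species per pot in sandy loam; ~3 weeks later, visual rating from 0% (as control) to 100% (plants died).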

Another assay has as its system SETVI. As to the kind of experiment: Herbicidal post-emergence action 1a (greenhouse pots, visual rating). The class given is in vivo, Setaria viridis. Conditions: rated visually about 3 weeks after treatment, 100% = plants have died, 0% = like control plants. The essentials: as §1
In a further assay the test system is harmful plants. As to the kind of experiment: Herbicidal pre-emergence action 2a, summary across species. The settings on record: Tables B1 to B15 (320 g/ha and/or 80 g/ha). The format is in vivo. The essentials:
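Pre-emergence greenhouse test: WP or EC formulations sprayed onto soil covering sown weed and crop seeds, 600 l/ha water with 0.5% additive, at 320 g/ha and/or 80 g/ha. Damage scored visually after about 3 weeks as % versus untreated control (100% = plants dead).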

The subject of the next assay is AMARE. As to the kind of experiment: Herbicidal pre-emergence action 2b (doubly sown, 1280 g/ha). The settings on record: doubly sown pots, dosage 1280 g/ha, visual scoring after about 3 weeks. The format is in vivo, Amaranthus retroflexus. The essentials:
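Seeds are placed in sandy loam and covered, then the formulated compound is applied to the covering soil in water equivalent to 600 litres per hectare with 0.5% additive. Pots stay in the greenhouse under good growth conditions. Activity is rated visually as a percentage of untreated controls after about three weeks.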

The test system of another assay is VIOTR. Kind of assay: Herbicidal pre-emergence action 2a (greenhouse pots, visual scoring). The format is in vivo, Viola tricolor. Conditions: dosage 320 g/ha, visual scoring after about 3 weeks vs untreated controls. The essentials: (§3)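 Weed and crop seeds placed in pots and covered with soil; aqueous suspension or emulsion of WP/EC formulation applied to the soil surface before emergence (600 l/ha, 0.5% additive, 320 and/or 80 g/ha). Pots kept in the greenhouse about 3 weeks; visual percentage scoring.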

The subject of assay [2] is ECHCG. The assay is described as above. The class given is in vivo, Echinochloa crus-galli. Conditions: dosage 320 g/ha, visual scoring after about 3 weeks. The essentials: as §3
A further assay has as its system POAAN. As to the kind of experiment: Herbicidal post-emergence action 1b (twin sowing, 1280 g/ha). The format is in vivo, Poa annua. Conditions: dosage 1280 g/ha, visual rating about 3 weeks after treatment. The essentials:
as §2

A further assay relates to DIGSA. Kind of assay: Herbicidal pre-emergence action 2a (greenhouse pots, visual scoring). The class given is in vivo, Digitaria sanguinalis. The settings on record: dosage 320 g/ha, visual scoring after about 3 weeks. An outline of the steps: as §3
A further assay deals with LOLRI. The description is as above. Conditions: dosage 320 g/ha, visual scoring after about 3 weeks vs untreated controls. The class given is in vivo, Lolium rigidum. The essentials:
as §3

Consider `COC(=O)[C@@H](C)Oc1nn(-c2cnccn2)c(-c2cccc(F)c2)c1Br` [Example I-20], for which the “Post-emergence action against ABUTH in %” value was 80% with ABUTH (dosage 80 g/ha) and 90% with ABUTH (dosage 320 g/ha). Further, the “Post-emergence action against ECHCG in %” value in the assay with ECHCG [1] (Dosage 320 g/ha) is 80%. Also, in the assay on MATIN, the “Post-emergence action at 1280 g/ha against MATIN in %” value stood at 100%. In addition, the “Post-emergence action against SETVI in %” value with SETVI (Dosage 80 g/ha) is listed as 80%; with SETVI (Dosage 320 g/ha), 90%. Further, in the assay with harmful plants, the “herbicidal efficacy against harmful plants in the case of pre-emergence treatment (in words)” value (“herbicidal efficacy” below) was “good herbicidal efficacy”. Further, in the assay on AMARE, the “Pre-emergence action at 1280 g/ha against AMARE in %” value amounted to 100%. Also, in the assay on VIOTR, the “Pre-emergence action against VIOTR in %” value is on record as 90%. Further, in the assay on ECHCG [2], the “Pre-emergence action against ECHCG in %” value is listed as 90%. Besides, the “Post-emergence action at 1280 g/ha against POAAN in %” value in the assay with POAAN was determined as 100%. The “Pre-emergence action against DIGSA in %” value with DIGSA amounted to 100%.
Consider `CCOC(=O)COc1nn(-c2cnccn2)c(-c2ccc(F)nc2)c1Cl` [Example I-53], for which the “Post-emergence action against ABUTH in %” value in the assay on ABUTH (dosage 80 g/ha) was determined as 80%. Besides, the “Post-emergence action against ECHCG in %” value with ECHCG [1] (Dosage 80 g/ha) is recorded as 80%. In the assay on MATIN, the “Post-emergence action at 1280 g/ha against MATIN in %” value stood at 100%. For the same compound, the “Post-emergence action against SETVI in %” value in the assay on SETVI (Dosage 80 g/ha) amounted to 80%. Besides, the “herbicidal efficacy” value with harmful plants is reported as “good herbicidal efficacy”. For the same compound, in the assay on AMARE, the “Pre-emergence action at 1280 g/ha against AMARE in %” value is 100%. Further, the “Pre-emergence action against LOLRI in %” value in the assay with LOLRI is 80%. Also, the “Pre-emergence action against VIOTR in %” value in the assay on VIOTR amounted to 100%. For the same compound, the “Pre-emergence action against ECHCG in %” value in the assay with ECHCG [2] worked out at 100%. Also, the “Post-emergence action at 1280 g/ha against POAAN in %” value with POAAN came to 100%. The “Pre-emergence action against DIGSA in %” value in the assay with DIGSA is on record as 100%.
Consider `C[C@H](Oc1nn(-c2cnccn2)c(-c2cncc(F)c2)c1Br)C(=O)O` [Example I-37], for which the “Post-emergence action against ABUTH in %” value with ABUTH (dosage 80 g/ha) and in the assay with ABUTH (dosage 320 g/ha) was 80% throughout. The “Post-emergence action against ECHCG in %” value in the assay on ECHCG [1] (Dosage 320 g/ha) is recorded as 90%. Besides, the “Post-emergence action at 1280 g/ha against MATIN in %” value with MATIN was determined as 90%. Moreover, the “Post-emergence action against SETVI in %” value in the assay with SETVI (Dosage 80 g/ha) and in the assay with SETVI (Dosage 320 g/ha) was 90% throughout. Moreover, the “herbicidal efficacy” value with harmful plants is listed as “good herbicidal efficacy”. For the same compound, the “Pre-emergence action at 1280 g/ha against AMARE in %” value in the assay with AMARE worked out at 100%. Moreover, the “Pre-emergence action against LOLRI in %” value with LOLRI was determined as 100%. In the assay on VIOTR, the “Pre-emergence action against VIOTR in %” value was determined as 100%. For the same compound, in the assay on ECHCG [2], the “Pre-emergence action against ECHCG in %” value is 90%. The “Post-emergence action at 1280 g/ha against POAAN in %” value in the assay with POAAN is on record as 100%. Moreover, in the assay on DIGSA, the “Pre-emergence action against DIGSA in %” value turned out to be 100%.
Turning to `COC(=O)[C@@H](C)Oc1nn(-c2cnccn2)c(-c2cncc(F)c2)c1Br` [Example I-39], the “Post-emergence action against ABUTH in %” value with ABUTH (dosage 80 g/ha) and in the assay with ABUTH (dosage 320 g/ha) was 80% throughout. Besides, the “Post-emergence action against ECHCG in %” value in the assay with ECHCG [1] (Dosage 80 g/ha) is reported as 80%; in the assay with ECHCG [1] (Dosage 320 g/ha) it was 90%. Besides, the “Post-emergence action at 1280 g/ha against MATIN in %” value in the assay with MATIN came out at 90%. The “Post-emergence action against SETVI in %” value with SETVI (Dosage 80 g/ha) and in the assay with SETVI (Dosage 320 g/ha) was 80% throughout. For the same compound, the “herbicidal efficacy” value in the assay on harmful plants is “good herbicidal efficacy”. Also, in the assay with AMARE, the “Pre-emergence action at 1280 g/ha against AMARE in %” value came out at 100%. Moreover, in the assay with LOLRI, the “Pre-emergence action against LOLRI in %” value is reported as 100%. In addition, the “Pre-emergence action against VIOTR in %” value in the assay on VIOTR came out at 100%. Also, the “Pre-emergence action against ECHCG in %” value in the assay on ECHCG [2] came to 100%. In the assay with POAAN, the “Post-emergence action at 1280 g/ha against POAAN in %” value is reported as 100%. Besides, the “Pre-emergence action against DIGSA in %” value in the assay with DIGSA was determined as 100%.
